How the values were obtained:
Assay type in all cases: binding
[1] = biological target: T1, OiMacroD (Oceanobacillus iheyensis, UniProt Q8EP31); test: thermal shift, SYPRO Orange; details: 50 mM sodium phosphate pH 7.0, 1 mM ligand; without ligand Tm = 41.7 ± 0.2 °C
T1 construct: gene OB2288

[2] = biological target: T1, OiMacroD; test: X-ray crystal structure, […] Å; details: crystal soaked with 20 mM ADPr; active site
[3] = biological target: T2, OiMacroD (Oceanobacillus iheyensis, UniProt Q8EP31, G37V); test: X-ray crystal structure, […] Å; details: crystal soaked with 20 mM ADPr; active site
T2 construct: gene OB2288

[4] = biological target: T1, OiMacroD; test: thermal shift, SYPRO Orange; details: 50 mM sodium phosphate pH 7.0, 1 mM ligand; without ligand Tm = 41.7 ± 0.2 °C; remark: listed apart in the source
[5] = biological target: T1, OiMacroD; test: X-ray crystal structure, […] Å; details: crystal soaked with 20 mM ADP; active site, two alternative conformations
[6] = biological target: T1, OiMacroD; test: thermal shift, SYPRO Orange; details: 50 mM sodium phosphate pH 7.0, 1 mM ligand; without ligand Tm = 41.7 ± 0.2 °C; remark: listed apart in the source

T1 sequence (Q8EP31 entry or part of it): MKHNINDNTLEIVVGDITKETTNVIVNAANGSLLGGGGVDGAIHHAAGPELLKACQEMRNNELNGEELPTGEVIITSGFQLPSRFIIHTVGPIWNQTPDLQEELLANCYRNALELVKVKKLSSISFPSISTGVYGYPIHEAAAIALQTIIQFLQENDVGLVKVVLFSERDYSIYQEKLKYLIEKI
T2 sequence (Q8EP31 entry or part of it G37V): as the sequence (Q8EP31 entry or part of it) above, with G37V counted along it

In the case of `Nc1ncnc2c1ncn2[C@@H]1O[C@H](COP(=O)(O)OP(=O)(O)OC[C@H]2OC(O)[C@H](O)[C@@H]2O)[C@@H](O)[C@H]1O` (stereo partly drawn) [ADP-ribose], the “Tm with 1 mM ADPr” value [1] is reported as 47.8 ± 0.1 °C, the “X-ray crystal structure, 1.77 Å” value [2] is reported as “OiMacroD-ADPr (5L9K)” and the “X-ray crystal structure, 1.35 Å” value [3] is reported as “OiMacroD G37V (ADPr) (5LAU)”.
`Nc1ncnc2c1ncn2[C@@H]1O[C@H](COP(=O)(O)OP(=O)(O)O)[C@@H](O)[C@H]1O` [ADP] was tested, and the “Tm with 1 mM ADP” value [4] was 44.0 ± 0.2 °C and the “X-ray crystal structure, 1.75 Å” value [5] was “OiMacroD-ADP (5L9Q)”.
With `Nc1ncnc2c1ncn2[C@@H]1O[C@H](COP(=O)(O)O)[C@@H](O)[C@H]1O` [AMP] the “Tm with 1 mM AMP” value [6] was 43.3 ± 0.1 °C.

From paper PMC5413906, “Structural and functional analysis of Oceanobacillus iheyensis macrodomain reveals a network of waters involved in substrate binding and catalysis” (Open Biology, 2017)
